These results are taken from PMC6934184, “Selective DNA-PKcs inhibition extends the therapeutic index of localized radiotherapy and chemotherapy” (The Journal of Clinical Investigation, 2019).

SMILES strings stand for the structures.

In this assay the target is T1, MAPKAPK3 (Homo sapiens, UniProt Q16644).
T1 construct: purchased Thermo Fisher Scientific (Life Technologies) SelectScreen
The experiment in a line: SelectScreen Z'LYTE. Type of assay: biochemical. A digest of the protocol:
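Percent values come from Thermo SelectScreen profiling of NU5455, combining activity and binding assays. CSF1R was run in Z'LYTE format at Km app ATP, and CAMK1 in Adapta format with ATP listed at 10.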

T1 sequence (Q16644 whole entry): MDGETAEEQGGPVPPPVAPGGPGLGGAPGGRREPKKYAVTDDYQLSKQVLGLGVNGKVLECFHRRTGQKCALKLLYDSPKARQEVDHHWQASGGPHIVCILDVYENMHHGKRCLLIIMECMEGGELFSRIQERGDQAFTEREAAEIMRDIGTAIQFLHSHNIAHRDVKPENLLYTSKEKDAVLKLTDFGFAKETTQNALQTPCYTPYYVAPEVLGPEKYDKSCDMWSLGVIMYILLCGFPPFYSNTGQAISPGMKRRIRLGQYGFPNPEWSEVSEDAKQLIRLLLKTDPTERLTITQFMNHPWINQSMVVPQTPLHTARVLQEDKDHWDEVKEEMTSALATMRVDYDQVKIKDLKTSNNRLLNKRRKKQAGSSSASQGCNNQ

A word on the inhibition: it is the change of the read-out against control, counted positive when it falls. Higher therefore signals a strong effect. Molecule `CN(C(=O)CN1CCOCC1)c1ccc2sc3c(-c4cccc5c(=O)cc(N6CC7CCC(C6)O7)oc45)cccc3c2c1` [NU5455] registered an inhibition at 1 µM of 1.4%.
